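Dose response: 5 concentrations. Exposure: 48 h. Format: 96-well plates. Endpoint: linear interpolation; highest concentration if not reached. The concentration for full growth arrest is given as TGI.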
Columns and labels:
Assay in all cases: NCI tumour cell line growth inhibition, 48 h
DMS 273 small cell lung = tested on: DMS 273 small cell lung
KM20L2 colon = tested on: KM20L2 colon
HOP-18 NSCLC = tested on: HOP-18 NSCLC
DLD-1 colon = tested on: DLD-1 colon
RXF-631 renal = tested on: RXF-631 renal
LXFL 529 NSCLC = tested on: LXFL 529 NSCLC
M19-MEL melanoma = tested on: M19-MEL melanoma
MDA-N = tested on: MDA-N
XF 498 CNS = tested on: XF 498 CNS

## CN(C)CC1CCCC/C1=N/O (centres undefined)
DMS 273 small cell lung
  TGI: > 100 µM
KM20L2 colon
  TGI: > 100 µM
HOP-18 NSCLC
  TGI: > 100 µM
DLD-1 colon
  TGI: > 100 µM
RXF-631 renal
  TGI: > 100 µM
LXFL 529 NSCLC
  TGI: > 100 µM
M19-MEL melanoma
  TGI: > 100 µM

## CC#Cc1ccc(-c2ccccc2)s1
MDA-N
  TGI: > 100 µM

## CN(C)CC1CCC/C1=N/OC(=O)c1ccccc1 (centres undefined)
DMS 273 small cell lung
  TGI: > 100 µM
KM20L2 colon
  TGI: > 100 µM
HOP-18 NSCLC
  TGI: > 100 µM
DLD-1 colon
  TGI: > 100 µM
RXF-631 renal
  TGI: > 100 µM
LXFL 529 NSCLC
  TGI: > 100 µM
M19-MEL melanoma
  TGI: > 100 µM

## CC(=O)OC1(C)N=NC2(CCCCC2)O1 (centres undefined)
MDA-N
  TGI: > 100 µM

## COC1=CC(=O)C(C2(OC(C)C)OC(=O)C(Cl)=C2Cl)=CC1=O (centres undefined)
MDA-N
  TGI: > 100 µM

## COc1ccc2c(c1)[n+]([O-])c(C(N)=O)c(N)[n+]2[O-]
DMS 273 small cell lung
  TGI: > 100 µM
KM20L2 colon
  TGI: > 100 µM
HOP-18 NSCLC
  TGI: > 100 µM
DLD-1 colon
  TGI: > 100 µM
RXF-631 renal
  TGI: > 100 µM
LXFL 529 NSCLC
  TGI: > 100 µM
M19-MEL melanoma
  TGI: > 100 µM

## Cc1ccc(S(=O)(=O)N2CCC2c2ccccc2)cc1 (centres undefined)
DMS 273 small cell lung
  TGI: > 100 µM
KM20L2 colon
  TGI: > 100 µM
XF 498 CNS
  TGI: > 100 µM
HOP-18 NSCLC
  TGI: > 100 µM
M19-MEL melanoma
  TGI: > 100 µM

## C/C(CN1C(=O)c2ccccc2C1=O)=N\NS(=O)(=O)c1ccc(Cl)cc1
DMS 273 small cell lung
  TGI: > 100 µM
KM20L2 colon
  TGI: > 100 µM
XF 498 CNS
  TGI: > 100 µM
HOP-18 NSCLC
  TGI: > 100 µM
DLD-1 colon
  TGI: > 100 µM
RXF-631 renal
  TGI: > 100 µM
LXFL 529 NSCLC
  TGI: > 100 µM
M19-MEL melanoma
  TGI: > 100 µM

## Cc1nc(-c2nc(C)c(C(=O)NNC(=O)C[n+]3ccccc3)s2)sc1C(=O)NNC(=O)C[n+]1ccccc1
KM20L2 colon
  TGI: > 100 µM
DLD-1 colon
  TGI: > 100 µM
LXFL 529 NSCLC
  TGI: > 100 µM
M19-MEL melanoma
  TGI: > 100 µM

## CCOC(=O)C1Sc2ccccc2N=C1C (centres undefined)
KM20L2 colon
  TGI: > 100 µM
XF 498 CNS
  TGI: > 100 µM
HOP-18 NSCLC
  TGI: > 100 µM
DLD-1 colon
  TGI: > 100 µM
LXFL 529 NSCLC
  TGI: > 100 µM
M19-MEL melanoma
  TGI: > 100 µM

## O=S1C(=c2ccc(=C3Sc4ccccc4S3)cc2)Sc2ccccc21 (centres undefined)
DMS 273 small cell lung
  TGI: 37.1 µM
KM20L2 colon
  TGI: 31.9 µM
HOP-18 NSCLC
  TGI: > 100 µM
DLD-1 colon
  TGI: > 93.3 µM
LXFL 529 NSCLC
  TGI: > 100 µM
M19-MEL melanoma
  TGI: 38.3 µM

## O=C(NC1C=CCC2C(=O)N(c3ccccc3)C(=O)C12)OCc1ccccc1 (centres undefined)
DMS 273 small cell lung
  TGI: > 100 µM
KM20L2 colon
  TGI: > 100 µM
XF 498 CNS
  TGI: > 100 µM
HOP-18 NSCLC
  TGI: > 100 µM
DLD-1 colon
  TGI: > 100 µM
LXFL 529 NSCLC
  TGI: > 100 µM
M19-MEL melanoma
  TGI: > 100 µM

## CCC(C)SC1SCC2C(=O)N(C)C3(CC3C)C(=O)OCC(NC(=O)c3nc4ccccc4cc3O)C(=O)NC(C)C(=O)N(C)C1C(=O)N(C)C1(CC1C)C(=O)OCC(NC(=O)c1nc3ccccc3cc1O)C(=O)NC(C)C(=O)N2C (centres undefined)
DMS 273 small cell lung
  TGI: 0.000123 µM
MDA-N
  TGI: 0.000162 µM
KM20L2 colon
  TGI: 0.000446 µM
XF 498 CNS
  TGI: 0.000434 µM
HOP-18 NSCLC
  TGI: 24.1 µM
DLD-1 colon
  TGI: 0.0732 µM
RXF-631 renal
  TGI: 1.22 µM
LXFL 529 NSCLC
  TGI: 0.791 µM
M19-MEL melanoma
  TGI: 0.000236 µM

## CNC(=O)NCCCC(NC(C)=O)C(=O)NCc1ccccc1 (centres undefined)
DMS 273 small cell lung
  TGI: > 100 µM
KM20L2 colon
  TGI: > 100 µM
DLD-1 colon
  TGI: > 100 µM
RXF-631 renal
  TGI: > 100 µM
LXFL 529 NSCLC
  TGI: > 100 µM
M19-MEL melanoma
  TGI: > 100 µM

## Nc1nc2[nH]cc(CCc3ccc(C(=O)N[C@@H](CCC(=O)O)C(=O)O)cc3)c2c(=O)[nH]1
MDA-N
  TGI: > 100 µM

## CN(C)C=Nc1nc(=O)n(C2CCC(CO)O2)cc1F (centres undefined)
DMS 273 small cell lung
  TGI: > 100 µM
KM20L2 colon
  TGI: > 100 µM
XF 498 CNS
  TGI: > 100 µM
HOP-18 NSCLC
  TGI: > 100 µM
DLD-1 colon
  TGI: > 100 µM
LXFL 529 NSCLC
  TGI: > 100 µM

## CC(=O)Nc1cc2ccc(=O)oc2cc1Cl
MDA-N
  TGI: > 100 µM

## COc1ccc(/C=C/COC(C)=O)cc1OC
DMS 273 small cell lung
  TGI: > 100 µM
KM20L2 colon
  TGI: > 100 µM
LXFL 529 NSCLC
  TGI: > 100 µM
M19-MEL melanoma
  TGI: > 100 µM

## NC(N)=NS(=O)(=O)c1ccc(N=Nc2c(O)c(C(=O)O)cc3ccccc23)cc1
MDA-N
  TGI: > 100 µM

## O=c1c2cccnc2ncn1CCN1CCCCC1
DMS 273 small cell lung
  TGI: > 100 µM
KM20L2 colon
  TGI: > 100 µM
XF 498 CNS
  TGI: > 100 µM
DLD-1 colon
  TGI: > 100 µM
LXFL 529 NSCLC
  TGI: > 100 µM
M19-MEL melanoma
  TGI: > 100 µM

## N#CC(C(=O)CCC(=O)Nc1ccc(Cl)c(Cl)c1)c1ccccc1 (centres undefined)
DMS 273 small cell lung
  TGI: > 100 µM
KM20L2 colon
  TGI: > 100 µM
XF 498 CNS
  TGI: > 100 µM
HOP-18 NSCLC
  TGI: > 100 µM
DLD-1 colon
  TGI: > 100 µM
M19-MEL melanoma
  TGI: > 100 µM

## C[C@@]1(O)CC[C@]2(C)C3CCCC3[C@H]12 (some centres undefined)
DMS 273 small cell lung
  TGI: > 100 µM
KM20L2 colon
  TGI: > 100 µM
HOP-18 NSCLC
  TGI: > 100 µM
DLD-1 colon
  TGI: > 100 µM
RXF-631 renal
  TGI: > 100 µM
LXFL 529 NSCLC
  TGI: > 100 µM
M19-MEL melanoma
  TGI: > 100 µM

## CN1C(=O)C(=O)N2c3ccc(Cl)cc3C3(c4ccccc4)N=CC12O3 (centres undefined)
DMS 273 small cell lung
  TGI: 16.4 µM
KM20L2 colon
  TGI: 24.1 µM
XF 498 CNS
  TGI: 12.3 µM
HOP-18 NSCLC
  TGI: 34.6 µM
DLD-1 colon
  TGI: 10.3 µM
LXFL 529 NSCLC
  TGI: 10.2 µM
M19-MEL melanoma
  TGI: 13.7 µM

Source: PubChem BioAssay (NCI)
